The term IC50 denotes the concentration needed to halve the response being measured.

Molecules are shown by their SMILES.

The results in this text go back to patent US7704995B2 (Exelixis, Inc., priority 2003, dated 2010).

This experiment addresses T1, Chk1 (Homo sapiens, UniProt O14757).
T1 construct: purchased Upstate Biotechnology
T1 sequence (O14757 1-476): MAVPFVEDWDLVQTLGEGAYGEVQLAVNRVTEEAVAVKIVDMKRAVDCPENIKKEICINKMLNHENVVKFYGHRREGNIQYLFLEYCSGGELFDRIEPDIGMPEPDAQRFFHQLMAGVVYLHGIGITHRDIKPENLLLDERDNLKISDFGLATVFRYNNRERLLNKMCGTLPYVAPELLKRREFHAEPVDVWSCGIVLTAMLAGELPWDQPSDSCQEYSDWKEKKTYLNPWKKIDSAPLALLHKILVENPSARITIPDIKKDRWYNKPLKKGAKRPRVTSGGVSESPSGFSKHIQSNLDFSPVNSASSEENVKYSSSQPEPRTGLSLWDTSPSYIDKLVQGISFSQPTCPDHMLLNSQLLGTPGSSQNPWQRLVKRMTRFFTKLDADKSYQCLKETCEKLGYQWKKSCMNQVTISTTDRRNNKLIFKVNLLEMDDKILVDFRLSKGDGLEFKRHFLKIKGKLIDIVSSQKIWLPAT
The experiment is described as follows: Chk1 kinase assay: incorporation of γ-33P ATP into immobilized myelin basic protein. The experiment is classed as biochemical. The note with it: read-out: Chk1 IC50. In outline:
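Read-out is scintillation counting of 33P incorporated into plate-bound myelin basic protein. Chk1 runs at 10 nM enzyme with 10 μM ATP, Chk2 at 20 nM with 30 μM ATP, each for 1 hour at room temperature. Duplicate points; IC50 taken as 50% activity reduction, Ki computed from IC50.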
Turning to `CNC(=O)c1nc(-c2cccc(CNCc3cccc(-c4ccccc4)c3)c2)cnc1N` [Example 384, 3-amino-6-(3-{[(biphenyl-3-ylmethyl)amino]methyl}phenyl)-N-methylpyrazine-2-carboxamide], the 50% inhibitory concentration (IC50) lay within 50 to 1000 nM.

For `CNC(=O)c1nc(-c2cccc(C(=O)NCC3CCCN3Cc3ccccc3)c2)cnc1N` (stereo not drawn) [Example 385, 3-amino-N-methyl-6-{3-[({[1-(phenylmethyl)pyrrolidin-2-yl]methyl}amino)carbonyl]phenyl}pyrazine-2-carboxamide], the IC50 fell in the range of 50 to 1000 nM.

In the case of `CNC(=O)c1nc(-c2cccc(CNCc3ccc4c(c3)NCCO4)c2)cnc1N` [Example 386, 3-amino-6-(3-{[(3,4-dihydro-2H-1,4-benzoxazin-6-ylmethyl)amino]methyl}phenyl)-N-methylpyrazine-2-carboxamide], the concentration for half-maximal inhibition (IC50) was in the range of 50 to 1000 nM.

In the case of `CNC(=O)c1nc(-c2cccc(CNCc3ccc(F)cc3F)c2)cnc1N` [Example 387, 3-amino-6-[3-({[(2,4-difluorophenyl)methyl]amino}methyl)phenyl]-N-methylpyrazine-2-carboxamide], the IC50 is below 50 nM.

`CNC(=O)c1nc(-c2cccc(CNCc3cc(F)ccc3F)c2)cnc1N` [Example 388, 3-amino-6-[3-({[(2,5-difluorophenyl)methyl]amino}methyl)phenyl]-N-methylpyrazine-2-carboxamide]: the 50% inhibitory concentration (IC50) was 50 to 1000 nM.

Take `CNC(=O)c1nc(-c2cccc(CNCc3cccc(F)c3F)c2)cnc1N` [Example 389, 3-amino-6-[3-({[(2,3-difluorophenyl)methyl]amino}methyl)phenyl]-N-methylpyrazine-2-carboxamide]: the 50% inhibitory concentration (IC50) is 50 to 1000 nM.

For `CNC(=O)c1nc(-c2cccc(C(=O)NCc3ccccc3-c3ccncc3)c2)cnc1N` [Example 390, 3-amino-N-methyl-6-[3-({[(2-pyridin-4-ylphenyl)methyl]amino}carbonyl)phenyl]pyrazine-2-carboxamide], the IC50 lay in the range of 50 to 1000 nM.

In the case of `CNC(=O)c1nc(-c2cccc(C(=O)NCc3ccccc3-c3cccnc3)c2)cnc1N` [Example 391, 3-amino-N-methyl-6-[3-({[(2-pyridin-3-ylphenyl)methyl]amino}carbonyl)phenyl]pyrazine-2-carboxamide], the concentration for half-maximal inhibition (IC50) is 50 to 1000 nM.

Turning to `CNC(=O)c1nc(-c2cccc(CNCc3ccc(S(C)(=O)=O)cc3)c2)cnc1N` [Example 392, 3-amino-N-methyl-6-{3-[({[4-(methylsulfonyl)phenyl]methyl}amino)methyl]phenyl}pyrazine-2-carboxamide], the concentration for half-maximal inhibition (IC50) was 50 to 1000 nM.

For the compound `CNC(=O)c1nc(-c2cccc(CNCC(c3ccccc3)c3ccccc3)c2)cnc1N` [Example 393, 3-amino-6-(3-{[(2,2-diphenylethyl)amino]methyl}phenyl)-N-methylpyrazine-2-carboxamide], the 50% inhibitory concentration (IC50) lay within 50 to 1000 nM.

As to `CNC(=O)c1nc(-c2cccc(C(=O)NCC3CCN(Cc4ccccc4)C3)c2)cnc1N` (stereo not drawn) [Example 394, 3-amino-N-methyl-6-{3-[({[1-(phenylmethyl)pyrrolidin-3-yl]methyl}amino)carbonyl]phenyl}pyrazine-2-carboxamide], the IC50 was in the range of 50 to 1000 nM.

For `CNC(=O)c1nc(-c2cccc(CNCc3cccc(Oc4ccccc4)c3)c2)cnc1N` [Example 395, 3-amino-N-methyl-6-{3-[({[3-(phenyloxy)phenyl]methyl}amino)methyl]phenyl}pyrazine-2-carboxamide], the IC50 lay in the range of 50 to 1000 nM.

With `CNC(=O)c1nc(-c2cccc(CNCc3ccc(N)cc3)c2)cnc1N` [Example 396, 3-amino-6-[3-({[(4-aminophenyl)methyl]amino}methyl)phenyl]-N-methylpyrazine-2-carboxamide], the IC50 lay in the range of 50 to 1000 nM.

As for `CNC(=O)c1nc(-c2cccc(CNCc3ccc(Oc4ccccc4)cc3)c2)cnc1N` [Example 397, 3-amino-N-methyl-6-{3-[({[4-(phenyloxy)phenyl]methyl}amino)methyl]phenyl}pyrazine-2-carboxamide], the 50% inhibitory concentration (IC50) fell in the range of 50 to 1000 nM.

For the compound `CNC(=O)c1nc(-c2cccc(CNCc3c(OC)cccc3OC)c2)cnc1N` [Example 398, 3-amino-6-{3-[({[2,6-bis(methyloxy)phenyl]methyl}amino)methyl]phenyl}-N-methylpyrazine-2-carboxamide], the concentration for half-maximal inhibition (IC50) lay in the range of 50 to 1000 nM.

As for `CNC(=O)c1nc(-c2cccc(CNCc3ccccc3F)c2)cnc1N` [Example 399, 3-amino-6-[3-({[(2-fluorophenyl)methyl]amino}methyl)phenyl]-N-methylpyrazine-2-carboxamide], the IC50 was below 50 nM.

Consider `CNC(=O)c1nc(-c2cncc(C(=O)NCc3c(F)cccc3F)c2)cnc1N` [Example 400, 3-amino-6-[5-({[(2,6-difluorophenyl)methyl]amino}carbonyl)pyridin-3-yl]-N-methylpyrazine-2-carboxamide], for which the concentration for half-maximal inhibition (IC50) lay within 50 to 1000 nM.

Regarding `CNC(=O)c1nc(-c2cncc(C(=O)NCc3ccccc3-c3ccccc3)c2)cnc1N` [Example 401, 3-amino-6-(5-{[(biphenyl-2-ylmethyl)amino]carbonyl}pyridin-3-yl)-N-methylpyrazine-2-carboxamide], the IC50 was in the range of 50 to 1000 nM.

For the compound `CNC(=O)c1nc(-c2cccc(CNCc3c(F)cccc3F)c2)cnc1N` [Example 402, 3-amino-6-[3-({[(2,6-difluorophenyl)methyl]amino}methyl)phenyl]-N-methylpyrazine-2-carboxamide], the IC50 lay in the range of 50 to 1000 nM.

For `CNC(=O)c1nc(-c2cccc(CNCc3ccc4c(c3)OCCO4)c2)cnc1N` [Example 403, 3-amino-6-(3-{[(2,3-dihydro-1,4-benzodioxin-6-ylmethyl)amino]methyl}phenyl)-N-methylpyrazine-2-carboxamide], the IC50 is 50 to 1000 nM.

Consider `CNC(=O)c1nc(-c2cccc(CNCc3ccccc3N3CCCCC3)c2)cnc1N` [Example 404, 3-amino-N-methyl-6-[3-({[(2-piperidin-1-ylphenyl)methyl]amino}methyl)phenyl]pyrazine-2-carboxamide], for which the IC50 lay within 50 to 1000 nM.

For the compound `CNC(=O)c1nc(-c2cccc(C(=O)NCc3ccc(F)cc3C(F)(F)F)c2)cnc1N` [Example 405, 3-amino-6-{3-[({[4-fluoro-2-(trifluoromethyl)phenyl]methyl}amino)carbonyl]phenyl}-N-methylpyrazine-2-carboxamide], the half-inhibitory concentration (IC50) was 50 to 1000 nM.

As to `CNC(=O)c1nc(-c2cccc(C(=O)NCc3ccc(C(F)(F)F)nc3)c2)cnc1N` [Example 406, 3-amino-N-methyl-6-{3-[({[6-(trifluoromethyl)pyridin-3-yl]methyl}amino)carbonyl]phenyl}pyrazine-2-carboxamide], the 50% inhibitory concentration (IC50) was in the range of 50 to 1000 nM.

As to `CNC(=O)c1nc(-c2cccc(-c3nc4ccccc4[nH]3)c2)cnc1N` [Example 407, 3-amino-6-[3-(1H-benzimidazol-2-yl)phenyl]-N-methylpyrazine-2-carboxamide], the IC50 was 50 to 1000 nM.

Regarding `CNC(=O)c1nc(-c2cccc(CNCc3cc(Cl)ccc3Cl)c2)cnc1N` [Example 408, 3-amino-6-[3-({[(2,5-dichlorophenyl)methyl]amino}methyl)phenyl]-N-methylpyrazine-2-carboxamide], the concentration for half-maximal inhibition (IC50) lay within 50 to 1000 nM.

For the compound `CNC(=O)c1nc(-c2cccc(CNCc3cc(Cl)cc(Cl)c3)c2)cnc1N` [Example 409, 3-amino-6-[3-({[(3,5-dichlorophenyl)methyl]amino}methyl)phenyl]-N-methylpyrazine-2-carboxamide], the IC50 is below 50 nM.

For `CNC(=O)c1nc(-c2cccc(NCCc3ccccc3)c2)cnc1N` [Example 410, 3-amino-N-methyl-6-{3-[(2-phenylethyl)amino]phenyl}pyrazine-2-carboxamide], the IC50 is 50 to 1000 nM.

Consider `CNC(=O)c1nc(-c2cncc(C(=O)NCc3ccc4c(c3)OCCO4)c2)cnc1N` [Example 411, 3-amino-6-(5-{[(2,3-dihydro-1,4-benzodioxin-6-ylmethyl)amino]carbonyl}pyridin-3-yl)-N-methylpyrazine-2-carboxamide], for which the concentration for half-maximal inhibition (IC50) fell in the range of 50 to 1000 nM.

For the compound `CNC(=O)c1nc(-c2cccc(C(=O)NCCNc3ccccc3)c2)cnc1N` [Example 412, 3-amino-N-methyl-6-[3-({[2-(phenylamino)ethyl]amino}carbonyl)phenyl]pyrazine-2-carboxamide], the IC50 was 50 to 1000 nM.

For `CCc1ccc(CNC(=O)c2cccc(-c3cnc(N)c(C(=O)NC)n3)c2)cc1` [Example 413, 3-amino-6-[3-({[(4-ethylphenyl)methyl]amino}carbonyl)phenyl]-N-methylpyrazine-2-carboxamide], the half-maximal inhibitory concentration (IC50) fell in the range of 50 to 1000 nM.

`CNC(=O)c1nc(-c2cccc(C(=O)NCc3ccc(-c4cccnc4)cc3)c2)cnc1N` [Example 414, 3-amino-N-methyl-6-[3-({[(4-pyridin-3-ylphenyl)methyl]amino}carbonyl)phenyl]pyrazine-2-carboxamide]: the 50% inhibitory concentration (IC50) was 50 to 1000 nM.

Turning to `CNC(=O)c1nc(-c2cccc(CNC3Cc4ccccc4C3)c2)cnc1N` [Example 415, 3-amino-6-{3-[(2,3-dihydro-1H-inden-2-ylamino)methyl]phenyl}-N-methylpyrazine-2-carboxamide], the IC50 was below 50 nM.

Turning to `CNC(=O)c1nc(-c2cccc(CN3Cc4ccccc4C3)c2)cnc1N` [Example 416, 3-amino-6-[3-(1,3-dihydro-2H-isoindol-2-ylmethyl)phenyl]-N-methylpyrazine-2-carboxamide], the IC50 lay within 50 to 1000 nM.
